We go through twelve compounds from ChEMBL document CHEMBL5120839, “Design, synthesis and antibacterial activity of novel pleuromutilin derivatives with thieno[2,3-d]pyrimidine substitution” (Eur J Med Chem, 2022).

≈ marks a conversion by molar mass, not a printed value.

The test system of the first assay is Streptococcus agalactiae. The assay is described as follows: Antibacterial activity against Streptococcus agalactiae assessed as inhibition of bacterial growth incubated for 24 hrs by microbroth two-fold dilution method. In kind it is functional. (In general: Dilution methods test growth across graded concentrations, often in twofold steps.)
As to `C=C[C@]1(C)C[C@@H](OC(=O)CSc2nc(N3CCN(CC)CC3)c3c(C)csc3n2)[C@]2(C)[C@H](C)CC[C@]3(CCC(=O)[C@H]32)[C@@H](C)[C@@H]1O`, the minimum inhibitory concentration (MIC) (in general, the lowest concentration that inhibits growth of the organism) came out at 0.0076 µg/mL (≈ 0.0116 µM).
Take `C=C[C@]1(C)C[C@@H](OC(=O)CSc2nc(N3CCN(CC)CC3)c3ccccc3n2)[C@]2(C)[C@H](C)CC[C@]3(CCC(=O)[C@H]32)[C@@H](C)[C@@H]1O`: the MIC came out at 0.244 µg/mL (≈ 0.384 µM).
Same read-out and setting: the same measure for `C=C[C@]1(C)C[C@@H](OC(=O)CSc2nc(N3CCC(C)CC3)c3ccsc3n2)[C@]2(C)[C@H](C)CC[C@]3(CCC(=O)[C@H]32)[C@@H](C)[C@@H]1O`: 7.81 µg/mL (≈ 12.5 µM); for `C=C[C@]1(C)C[C@@H](OC(=O)CSc2nccc(NCCO)n2)[C@]2(C)[C@H](C)CC[C@]3(CCC(=O)[C@H]32)[C@@H](C)[C@@H]1O`: 0.488 µg/mL (≈ 0.918 µM); for `C=C[C@]1(C)C[C@@H](OC(=O)CSc2nc(N3CCN(CC)CC3)cc(C(F)(F)F)n2)[C@]2(C)[C@H](C)CC[C@]3(CCC(=O)[C@H]32)[C@@H](C)[C@@H]1O`: 0.244 µg/mL (≈ 0.374 µM).
Turning to `C=C[C@]1(C)C[C@@H](OC(=O)CSc2nc(N/N=C/c3ccccc3OC)c3ccsc3n2)[C@]2(C)[C@H](C)CC[C@]3(CCC(=O)[C@H]32)[C@@H](C)[C@@H]1O`, the minimum inhibitory concentration (MIC) worked out at 0.244 µg/mL (≈ 0.361 µM).
Consider `C=C[C@]1(C)C[C@@H](OC(=O)CSc2nc(N3CCSCC3)c3ccsc3n2)[C@]2(C)[C@H](C)CC[C@]3(CCC(=O)[C@H]32)[C@@H](C)[C@@H]1O`, for which the MIC came out at 1.95 µg/mL (≈ 3.1 µM).
For the compound `C=C[C@]1(C)C[C@@H](OC(=O)CSc2nc(N/N=C/c3cccs3)c3ccsc3n2)[C@]2(C)[C@H](C)CC[C@]3(CCC(=O)[C@H]32)[C@@H](C)[C@@H]1O`, the MIC is 0.488 µg/mL (≈ 0.748 µM).
Turning to `C=C[C@]1(C)C[C@@H](OC(=O)CSc2nc(C)cc(NCCO)n2)[C@]2(C)[C@H](C)CC[C@]3(CCC(=O)[C@H]32)[C@@H](C)[C@@H]1O`, the MIC was 0.244 µg/mL (≈ 0.447 µM).
Consider `C=C[C@]1(C)C[C@@H](OC(=O)CSc2nc(N/N=C/c3ccc(OC)cc3O)c3ccsc3n2)[C@]2(C)[C@H](C)CC[C@]3(CCC(=O)[C@H]32)[C@@H](C)[C@@H]1O`, for which the MIC came out at 0.244 µg/mL (≈ 0.352 µM).
With `C=C[C@]1(C)C[C@@H](OC(=O)CSc2nc(N/N=C/c3ccccc3Br)c3ccsc3n2)[C@]2(C)[C@H](C)CC[C@]3(CCC(=O)[C@H]32)[C@@H](C)[C@@H]1O`, the MIC worked out at 0.977 µg/mL (≈ 1.35 µM).
The same measure, in the same setting: the same measure for `C=C[C@]1(C)C[C@@H](OC(=O)CSc2nc(N3CCCC3)c3ccsc3n2)[C@]2(C)[C@H](C)CC[C@]3(CCC(=O)[C@H]32)[C@@H](C)[C@@H]1O`: 0.061 µg/mL (≈ 0.102 µM).

The test system of another assay is Escherichia coli. The assay is described as follows: Antibacterial activity against Escherichia coli assessed as inhibition of bacterial growth incubated for 24 hrs by microbroth two-fold dilution method. In kind it is functional.
Turning to `C=C[C@]1(C)C[C@@H](OC(=O)CSc2nc(N3CCN(CC)CC3)c3c(C)csc3n2)[C@]2(C)[C@H](C)CC[C@]3(CCC(=O)[C@H]32)[C@@H](C)[C@@H]1O`, the MIC came to 0.977 µg/mL (≈ 1.49 µM).
In the case of `C=C[C@]1(C)C[C@@H](OC(=O)CSc2nc(N3CCN(CC)CC3)c3ccccc3n2)[C@]2(C)[C@H](C)CC[C@]3(CCC(=O)[C@H]32)[C@@H](C)[C@@H]1O`, the MIC was determined as 3.91 µg/mL (≈ 6.15 µM).
As for `C=C[C@]1(C)C[C@@H](OC(=O)CSc2nc(N3CCC(C)CC3)c3ccsc3n2)[C@]2(C)[C@H](C)CC[C@]3(CCC(=O)[C@H]32)[C@@H](C)[C@@H]1O`, the MIC is more than 15.6 µg/mL.
Take `C=C[C@]1(C)C[C@@H](OC(=O)CSc2nccc(NCCO)n2)[C@]2(C)[C@H](C)CC[C@]3(CCC(=O)[C@H]32)[C@@H](C)[C@@H]1O`: the minimal inhibitory concentration (MIC) amounted to 3.91 µg/mL (≈ 7.35 µM).
Consider `C=C[C@]1(C)C[C@@H](OC(=O)CSc2nc(N3CCN(CC)CC3)cc(C(F)(F)F)n2)[C@]2(C)[C@H](C)CC[C@]3(CCC(=O)[C@H]32)[C@@H](C)[C@@H]1O`, for which the MIC is 1.95 µg/mL (≈ 2.99 µM).
On the same count and under the same terms, the same measure for `C=C[C@]1(C)C[C@@H](OC(=O)CSc2nc(N/N=C/c3ccccc3OC)c3ccsc3n2)[C@]2(C)[C@H](C)CC[C@]3(CCC(=O)[C@H]32)[C@@H](C)[C@@H]1O`: more than 15.6 µg/mL; for `C=C[C@]1(C)C[C@@H](OC(=O)CSc2nc(N3CCSCC3)c3ccsc3n2)[C@]2(C)[C@H](C)CC[C@]3(CCC(=O)[C@H]32)[C@@H](C)[C@@H]1O`: more than 15.6 µg/mL.
On the same count and under the same terms, the same measure for `C=C[C@]1(C)C[C@@H](OC(=O)CSc2nc(N/N=C/c3cccs3)c3ccsc3n2)[C@]2(C)[C@H](C)CC[C@]3(CCC(=O)[C@H]32)[C@@H](C)[C@@H]1O`: 7.81 µg/mL (≈ 12 µM).
Still for that read-out and setting: the same measure for `C=C[C@]1(C)C[C@@H](OC(=O)CSc2nc(C)cc(NCCO)n2)[C@]2(C)[C@H](C)CC[C@]3(CCC(=O)[C@H]32)[C@@H](C)[C@@H]1O`: 7.81 µg/mL (≈ 14.3 µM); for `C=C[C@]1(C)C[C@@H](OC(=O)CSc2nc(N/N=C/c3ccc(OC)cc3O)c3ccsc3n2)[C@]2(C)[C@H](C)CC[C@]3(CCC(=O)[C@H]32)[C@@H](C)[C@@H]1O`: more than 15.6 µg/mL; for `C=C[C@]1(C)C[C@@H](OC(=O)CSc2nc(N/N=C/c3ccccc3Br)c3ccsc3n2)[C@]2(C)[C@H](C)CC[C@]3(CCC(=O)[C@H]32)[C@@H](C)[C@@H]1O`: more than 15.6 µg/mL.
Consider `C=C[C@]1(C)C[C@@H](OC(=O)CSc2nc(N3CCCC3)c3ccsc3n2)[C@]2(C)[C@H](C)CC[C@]3(CCC(=O)[C@H]32)[C@@H](C)[C@@H]1O`, for which the MIC is more than 15.6 µg/mL.

The test system of a further assay is Staphylococcus aureus. As to the kind of experiment: Antibacterial activity against Staphylococcus aureus assessed as inhibition of bacterial growth incubated for 24 hrs by microbroth two-fold dilution method. In kind it is functional.
Take `C=C[C@]1(C)C[C@@H](OC(=O)CSc2nc(N3CCN(CC)CC3)c3c(C)csc3n2)[C@]2(C)[C@H](C)CC[C@]3(CCC(=O)[C@H]32)[C@@H](C)[C@@H]1O`: the MIC stood at 0.244 µg/mL (≈ 0.373 µM).
In the case of `C=C[C@]1(C)C[C@@H](OC(=O)CSc2nc(N3CCN(CC)CC3)c3ccccc3n2)[C@]2(C)[C@H](C)CC[C@]3(CCC(=O)[C@H]32)[C@@H](C)[C@@H]1O`, the MIC turned out to be 0.488 µg/mL (≈ 0.769 µM).
Turning to `C=C[C@]1(C)C[C@@H](OC(=O)CSc2nc(N3CCC(C)CC3)c3ccsc3n2)[C@]2(C)[C@H](C)CC[C@]3(CCC(=O)[C@H]32)[C@@H](C)[C@@H]1O`, the minimal inhibitory concentration (MIC) turned out to be 15.6 µg/mL (≈ 25 µM).
Regarding `C=C[C@]1(C)C[C@@H](OC(=O)CSc2nccc(NCCO)n2)[C@]2(C)[C@H](C)CC[C@]3(CCC(=O)[C@H]32)[C@@H](C)[C@@H]1O`, the MIC amounted to 0.122 µg/mL (≈ 0.23 µM).
On the same count and under the same terms, the same measure for `C=C[C@]1(C)C[C@@H](OC(=O)CSc2nc(N3CCN(CC)CC3)cc(C(F)(F)F)n2)[C@]2(C)[C@H](C)CC[C@]3(CCC(=O)[C@H]32)[C@@H](C)[C@@H]1O`: 0.488 µg/mL (≈ 0.748 µM); for `C=C[C@]1(C)C[C@@H](OC(=O)CSc2nc(N/N=C/c3ccccc3OC)c3ccsc3n2)[C@]2(C)[C@H](C)CC[C@]3(CCC(=O)[C@H]32)[C@@H](C)[C@@H]1O`: 0.977 µg/mL (≈ 1.44 µM); for `C=C[C@]1(C)C[C@@H](OC(=O)CSc2nc(N3CCSCC3)c3ccsc3n2)[C@]2(C)[C@H](C)CC[C@]3(CCC(=O)[C@H]32)[C@@H](C)[C@@H]1O`: 7.81 µg/mL (≈ 12.4 µM).
On to `C=C[C@]1(C)C[C@@H](OC(=O)CSc2nc(N/N=C/c3cccs3)c3ccsc3n2)[C@]2(C)[C@H](C)CC[C@]3(CCC(=O)[C@H]32)[C@@H](C)[C@@H]1O`, for which the minimal inhibitory concentration (MIC) is 0.977 µg/mL (≈ 1.5 µM).
Consider `C=C[C@]1(C)C[C@@H](OC(=O)CSc2nc(C)cc(NCCO)n2)[C@]2(C)[C@H](C)CC[C@]3(CCC(=O)[C@H]32)[C@@H](C)[C@@H]1O`, for which the MIC amounted to 0.244 µg/mL (≈ 0.447 µM).
Turning to `C=C[C@]1(C)C[C@@H](OC(=O)CSc2nc(N/N=C/c3ccc(OC)cc3O)c3ccsc3n2)[C@]2(C)[C@H](C)CC[C@]3(CCC(=O)[C@H]32)[C@@H](C)[C@@H]1O`, the MIC stood at 7.81 µg/mL (≈ 11.3 µM).
As to `C=C[C@]1(C)C[C@@H](OC(=O)CSc2nc(N/N=C/c3ccccc3Br)c3ccsc3n2)[C@]2(C)[C@H](C)CC[C@]3(CCC(=O)[C@H]32)[C@@H](C)[C@@H]1O`, the MIC worked out at 15.6 µg/mL (≈ 21.5 µM).
Same read-out and setting: the same measure for `C=C[C@]1(C)C[C@@H](OC(=O)CSc2nc(N3CCCC3)c3ccsc3n2)[C@]2(C)[C@H](C)CC[C@]3(CCC(=O)[C@H]32)[C@@H](C)[C@@H]1O`: 3.91 µg/mL (≈ 6.53 µM).

The next assay relates to Staphylococcus aureus. The assay is described as follows: Antibacterial activity against Staphylococcus aureus assessed as diameter of the inhibition circle at 1 mg/ml incubated for 48 hrs. In kind it is functional.
Regarding `C=C[C@]1(C)C[C@@H](OC(=O)CSc2nc(N3CCN(CC)CC3)c3c(C)csc3n2)[C@]2(C)[C@H](C)CC[C@]3(CCC(=O)[C@H]32)[C@@H](C)[C@@H]1O`, the inhibition zone diameter is 31.2 mm.
On the same count and under the same terms, the same measure for `C=C[C@]1(C)C[C@@H](OC(=O)CSc2nc(N3CCN(CC)CC3)c3ccccc3n2)[C@]2(C)[C@H](C)CC[C@]3(CCC(=O)[C@H]32)[C@@H](C)[C@@H]1O`: 22.1 mm; for `C=C[C@]1(C)C[C@@H](OC(=O)CSc2nc(N3CCC(C)CC3)c3ccsc3n2)[C@]2(C)[C@H](C)CC[C@]3(CCC(=O)[C@H]32)[C@@H](C)[C@@H]1O`: 10.9 mm.
Turning to `C=C[C@]1(C)C[C@@H](OC(=O)CSc2nccc(NCCO)n2)[C@]2(C)[C@H](C)CC[C@]3(CCC(=O)[C@H]32)[C@@H](C)[C@@H]1O`, the Activity was 27.3 mM.
In the case of `C=C[C@]1(C)C[C@@H](OC(=O)CSc2nc(N3CCN(CC)CC3)cc(C(F)(F)F)n2)[C@]2(C)[C@H](C)CC[C@]3(CCC(=O)[C@H]32)[C@@H](C)[C@@H]1O`, the inhibition zone diameter worked out at 21 mm.
Same read-out and setting: the same measure for `C=C[C@]1(C)C[C@@H](OC(=O)CSc2nc(N/N=C/c3ccccc3OC)c3ccsc3n2)[C@]2(C)[C@H](C)CC[C@]3(CCC(=O)[C@H]32)[C@@H](C)[C@@H]1O`: 21.1 mm; for `C=C[C@]1(C)C[C@@H](OC(=O)CSc2nc(N3CCSCC3)c3ccsc3n2)[C@]2(C)[C@H](C)CC[C@]3(CCC(=O)[C@H]32)[C@@H](C)[C@@H]1O`: 14 mm.
Take `C=C[C@]1(C)C[C@@H](OC(=O)CSc2nc(N/N=C/c3cccs3)c3ccsc3n2)[C@]2(C)[C@H](C)CC[C@]3(CCC(=O)[C@H]32)[C@@H](C)[C@@H]1O`: the inhibition zone diameter is 22.8 mm.
The same measure, in the same setting: the same measure for `C=C[C@]1(C)C[C@@H](OC(=O)CSc2nc(C)cc(NCCO)n2)[C@]2(C)[C@H](C)CC[C@]3(CCC(=O)[C@H]32)[C@@H](C)[C@@H]1O`: 22.8 mm; for `C=C[C@]1(C)C[C@@H](OC(=O)CSc2nc(N/N=C/c3ccc(OC)cc3O)c3ccsc3n2)[C@]2(C)[C@H](C)CC[C@]3(CCC(=O)[C@H]32)[C@@H](C)[C@@H]1O`: 23 mm.
As for `C=C[C@]1(C)C[C@@H](OC(=O)CSc2nc(N/N=C/c3ccccc3Br)c3ccsc3n2)[C@]2(C)[C@H](C)CC[C@]3(CCC(=O)[C@H]32)[C@@H](C)[C@@H]1O`, the inhibition zone diameter is 22.8 mm.
Take `C=C[C@]1(C)C[C@@H](OC(=O)CSc2nc(N3CCCC3)c3ccsc3n2)[C@]2(C)[C@H](C)CC[C@]3(CCC(=O)[C@H]32)[C@@H](C)[C@@H]1O`: the inhibition zone diameter was found to be 17.8 mm.
